Patent US4045567A, “2-Alkyl-5-thiazole-carboxylic acid derivatives in hypolipemiant compositions” (Roussel Uclaf, priority 1969, dated 1977)
Read-outs that look alike come from different tables or passages of the source.

Key:
Solubility (qualitative) = assay type: physicochemical; settings: for solubility in other solvents: organic solvents, sodium hydroxide
in vivo = settings: mouse, mice, observed one week
Method: 1. determination of the acute toxicity:
The acute toxicity has been determined on batches of ten mice weighing from 18 to 22 gm. The products were administered in suspension in gum arabic solution in water, at increasing doses, either by oral route or by intraperitoneal route.
The animals are kept under observation for one week. The average lethal dose (LD50) is determined graphically by the method of Dragstedt and Lang.
The acute toxicity was determined on batches of ten mice weighing from 18 to 22 gm. Ethyl 2-n-propyl-thiazole-4-carboxylate was administered in suspension in gum arabic solution in water, at increasing doses by the intraperitoneal route. The animals were kept under observation for one week. The average lethal dose (LD50) was determined graphically by the method of Dragstedt and Lang.

triglycerides = assay: Hypolipemiant activity (serum triglycerides) in the rat, technique of Jacobs et al; assay type: in vivo, male rats of the Wistar strain; settings: 4 hours after ingestion; for Percentage of Reduction by Comparison With Controls (triglycerides): oral (oesophagial probe), 20 mg/kg
Method: 2. Determination of hypolipemiant activity:
The hypolipemiant activity has been determined on the rat according to the technique of Jacobs et al, Proc. Soc. Exp. Biol. Med., [1965], 119 (4) pp. 1117-1120.
Male rats of the Wistar strain weighing from 160 to 180 gm are not fed for 24 hours. The products employed in a 5% suspension in gum arabic solution in water, are administered through an oesophagial probe at doses of 20, 40 and 80 mg/kg. Four hours after ingestion of the product, some blood is withdrawn on which a determination of the triglycerides is carried out.
The principle of the determination is as follows:
The serum lipids are extracted with petroleum ether in the presence of ethanol. The lipidic solution is treated several times with 87% ethanol. A solution is thus obtained, the upper part of which contains the glycerides and the lower part, the phospholipids.
The weight of the glycerides is determined by determination of glycerol by periodic acid oxidation and determination of the formaldehyde with chromotropic acid.
A. determination of hypolipemiant activity:
The hypolipemiant activity was determined on the rat using the technique of Jacobs et al (Proc. Soc. Exp. Biol. Med., [1965], 119 [4], pp. 1117-1120). Male rats of the Wistar strain weighing from 160 to 180 gm were not fed for 24 hours. The product employed in a 5% suspension in gum arabic solution in water, was administered orally through an oesophagial probe at doses of 20 and 80 mg/kg. Four hours after ingestion of the product, some blood was withdrawn and a determination of the triglycerides therein was made.
The serum lipids are extracted with petroleum ether in the presence of ethanol and the lipidic solution was treated several times with 87% ethanol to obtain a solution, the upper part of which contained the glycerides and the lower part the phospholipids. The weight of the glycerides by determination of glycerol by periodic acid oxidation and determination of the formaldehyde with chromotropic acid is estimated.

reddening of the ear = assay: Peripheral vasodilatory effect (reddening of the ear) in guinea pigs; assay type: in vivo, guinea pigs with non-pigmented ears; design: key to Intensity (of reddening): intensity, which is recorded subjectively from 0 to +++; intensity, which is recorded subjectively from 0 to +++; intensity, which is recorded subjectively from 0 to +++; intensity, which is recorded subjectively from 0 to +++; settings: for Duration (of reddening) / Intensity (of reddening) / Period of Induction: oral
Method: Peripheral vasodilatory effect: The peripheral vasodilatory effect has been investigated on the guinea pigs with non-pigmented ears by the appearance of the reddening of the ear. The animals, after being starved, are administered the products by oral route, at different dosages. The time of appearance of a reddening of the ears, the duration of this reddening and its intensity, which is recorded subjectively from 0 to +++ is determined. B. peripheral vasodilatory effect: The peripheral vasodilatory effect was investigated on guinea pigs with non-pigmented ears by the appearance of the reddening of the ear. The animals were starved and the product was administered intraperitoneally at a dose of 100 mg/kg. The time of appearance of a reddening of the ears, the duration of this reddening and its intensity being recorded subjectively from 0 to +++ is determined.

[1] = Hypothermic activity in guinea pigs; assay type: in vivo; settings: intraperitoneal, 100 mg/kg, 1, 2 and 3 hours after administration
Method: The hypothermic activity was determined on guinea pigs by administering the test compound, ethyl 2-n-propyl-thiazole-4-carboxylate, intraperitoneally at a dose of 100 mg/kg. The body temperature of the guinea pigs was determined 1/2 hour before the administration of the test compound and then 1, 2 and 3 hours after the said administration.

[2] = ip, intraperitoneal, read-out: average lethal dose (LD50), Intraperitoneal Route
[3] = oral, read-out: average lethal dose (LD50), Oral Route

Question: For `CCCc1ncc(C(=O)O)s1` [2-propyl-5-thiazolecarboxylic acid], which “solubility in other solvents” value (Solubility (qualitative)) is on record?
Answer: soluble in sodium hydroxide and alcohol, slightly soluble in ether

Question: And the solubility in water (Solubility (qualitative))?
Answer: insoluble in water

Question: What about the LD50 at 168 h (in vivo; [2]) of the same compound?
Answer: 1680 mg/kg

Question: What about the LD50 at 168 h (in vivo; [3]) of the same compound?
Answer: > 2000 mg/kg

Question: What about the “Percentage of Reduction by Comparison With Controls (triglycerides)” value (“Percentage of Reduction” for short) (triglycerides) of the same compound?
Answer: > 50%

Question: And the “Duration (of reddening)” value (reddening of the ear; 50 mg/kg)?
Answer: 30 min

Question: And the “Intensity (of reddening)” value (reddening of the ear; 50 mg/kg)?
Answer: +

Question: What about the “Period of Induction” value (reddening of the ear; 50 mg/kg) of the same compound?
Answer: 13 min

Question: And the “Duration (of reddening)” value (reddening of the ear; 100 mg/kg)?
Answer: 32 min

Question: What about the “Intensity (of reddening)” value (reddening of the ear; 100 mg/kg) of the same compound?
Answer: ++

Question: And the “Period of Induction” value (reddening of the ear; 100 mg/kg)?
Answer: 10 min

Question: With `CCCc1ncc(C(=O)OCc2ccccc2)s1` [benzyl 2-propyl-5-thiazolecarboxylate, Benzyl 2-propyl-5-thiazolecarboxylate] as the compound, how does the “solubility in other solvents” value (Solubility (qualitative)) read?
Answer: soluble in ether and ethanol

Question: What about the solubility in water (Solubility (qualitative)) of the same compound?
Answer: insoluble in water

Question: For `CCCc1ncc(C(=O)OCCc2ccccc2)s1` [Phenylethyl 2-propyl-5-thiazolecarboxylate], which “solubility in other solvents” value (Solubility (qualitative)) is on record?
Answer: soluble in ether and acetone

Question: And the solubility in water (Solubility (qualitative))?
Answer: insoluble in water

Question: With `CCCCCCc1ncc(C(=O)O)s1` [2-n-hexyl-5-thiazolecarboxylic acid] as the compound, how does the “solubility in other solvents” value (Solubility (qualitative)) read?
Answer: soluble in sodium hydroxide and alcohol

Question: What about the solubility in water (Solubility (qualitative)) of the same compound?
Answer: insoluble in water

Question: What does the source list for `CCCCCc1ncc(C(=O)O)s1` [2-n-pentyl-5-thiazolecarboxylic acid]?
Answer: solubility in other solvents (Solubility (qualitative)): soluble in sodium hydroxide and alcohol, slightly soluble in ether; solubility in water (Solubility (qualitative)): insoluble in water

Question: What does the source list for `CCCCc1ncc(C(=O)O)s1` [2-n-butyl-5-thiazolecarboxylic acid]?
Answer: solubility in other solvents (Solubility (qualitative)): soluble in alcohol, chloroform and benzene; solubility in water (Solubility (qualitative)): insoluble in water

Question: With `CCc1ncc(C(=O)O)s1` [2-ethyl-5-thiazolecarboxylic acid, 2-Ethyl-5-thiazolecarboxylic acid] as the compound, how does the “solubility in other solvents” value (Solubility (qualitative)) read?
Answer: soluble in ethanol and sodium hydroxide

Question: And the solubility in water (Solubility (qualitative))?
Answer: insoluble in water

Question: What about the LD50 at 168 h (in vivo; [2]) of the same compound?
Answer: 525 mg/kg

Question: And the LD50 at 168 h (in vivo; [3])?
Answer: > 2000 mg/kg

Question: What about the “Percentage of Reduction” value (triglycerides) of the same compound?
Answer: 50%

Question: And the “Duration (of reddening)” value (reddening of the ear; 50 mg/kg)?
Answer: 50 min

Question: What about the “Intensity (of reddening)” value (reddening of the ear; 50 mg/kg) of the same compound?
Answer: +++

Question: What about the “Period of Induction” value (reddening of the ear; 50 mg/kg) of the same compound?
Answer: 6 to 8 min

Question: And the “Duration (of reddening)” value (reddening of the ear; 100 mg/kg)?
Answer: 60 min

Question: And the “Intensity (of reddening)” value (reddening of the ear; 100 mg/kg)?
Answer: +++

Question: What about the “Period of Induction” value (reddening of the ear; 100 mg/kg) of the same compound?
Answer: 6 to 7 min

Question: For `CCCc1ncc(C(=O)O)s1` [diisopropylammonium 2-propyl-5-thiazolecarboxylate], which “solubility in other solvents” value (Solubility (qualitative)) is on record?
Answer: soluble in water and in alcohol

Question: What about the solubility in water (Solubility (qualitative)) of the same compound?
Answer: soluble in water

Question: For `CCCCCCCCCCCc1ncc(C(=O)O)s1` [2-n-undecyl-5-thiazolecarboxylic acid], which “solubility in other solvents” value (Solubility (qualitative)) is on record?
Answer: soluble in alcohol and acetone

Question: What about the solubility in water (Solubility (qualitative)) of the same compound?
Answer: insoluble in water

Question: Which “solubility in other solvents” value (Solubility (qualitative)) does the source give for `CCCc1ncc(C(=O)OCC2COC(C)(C)O2)s1` (stereo not drawn) [2,3-Isopropylidenedioxy-propyl 2-propyl-5-thiazolecarboxylate] here?
Answer: soluble in ether, benzene and ethanol

Question: And the solubility in water (Solubility (qualitative))?
Answer: insoluble in water

Question: For `CCCc1nc(C(=O)OCC)cs1` [ethyl 2-n-propyl-thiazole-4-carboxylate, reference compound], which LD50 at 168 h (in vivo; [2]) is on record?
Answer: 1000 to 1500 mg/kg

Question: And the “hypolipemiant activity (action on the triglycerides)” value (triglycerides; oral, 20 and 80 mg/kg, comparison test)?
Answer: no action on the triglycerides

Question: What about the peripheral vasodilatory effect (reddening of the ear; intraperitoneal, 100 mg/kg, comparison test) of the same compound?
Answer: no vasodilatory activity

Question: What about the hypothermic activity [1] of the same compound?
Answer: no hypothermic activity

Question: Which “solubility in other solvents” value (Solubility (qualitative)) does the source give for `CCCc1ncc(C(=O)OCCN(CC)CC)s1` [chlorohydrate of N,N-diethylaminoethyl 2-propyl-5-thiazolecarboxylate] here?
Answer: soluble in water, ethanol, propylene glycol, acetone, and chloroform, slightly soluble in ethyl acetate and benzene, and insoluble in ether

Question: What about the solubility in water (Solubility (qualitative)) of the same compound?
Answer: soluble in water

Question: Which “Percentage of Reduction” value (triglycerides) does the source give for `Cc1ncc(C(=O)O)s1` [2-methyl-5-thiazolecarboxylic acid] here?
Answer: 40%

Question: What about the “Duration (of reddening)” value (reddening of the ear; 10 mg/kg) of the same compound?
Answer: 30 min

Question: And the “Intensity (of reddening)” value (reddening of the ear; 10 mg/kg)?
Answer: +++

Question: What about the “Period of Induction” value (reddening of the ear; 10 mg/kg) of the same compound?
Answer: 5 min

Question: And the “Duration (of reddening)” value (reddening of the ear; 20 mg/kg)?
Answer: 32 min

Question: What about the “Intensity (of reddening)” value (reddening of the ear; 20 mg/kg) of the same compound?
Answer: +++

Question: And the “Period of Induction” value (reddening of the ear; 20 mg/kg)?
Answer: 3 min

Question: What about the “Duration (of reddening)” value (reddening of the ear; 50 mg/kg) of the same compound?
Answer: 35 min

Question: And the “Intensity (of reddening)” value (reddening of the ear; 50 mg/kg)?
Answer: +++

Question: What about the “Period of Induction” value (reddening of the ear; 50 mg/kg) of the same compound?
Answer: 3 min
